Assay results: ChEMBL document CHEMBL1681728, “An automated, polymer-assisted strategy for the preparation of urea and thiourea derivatives of 15-membered azalides as potential antimalarial chemotherapeutics” (Bioorg Med Chem, 2011)

Columns and labels:
Assay type in all cases: functional, organism-based
[1] = system: Plasmodium falciparum; assay: Antimalarial activity against chloroquine-sensitive Plasmodium falciparum D6 assessed as inhibition of [3H]hypoxanthine incorporation after 96 hrs by microtiter plate scintillation counting
[2] = system: Plasmodium falciparum; assay: Antimalarial activity against chloroquine-,pyrimethamine-resistant Plasmodium falciparum W2 assessed as inhibition of [3H]hypoxanthine incorporation after 96 hrs by microtiter plate scintillation counting
[3] = system: Plasmodium falciparum; assay: Antimalarial activity against multidrug-resistant Plasmodium falciparum TM91C235 assessed as inhibition of [3H]hypoxanthine incorporation after 96 hrs by microtiter plate scintillation counting

SMILES | IC50 [1] | IC50 [2] | IC50 [3]
CC[C@H]1OC(=O)[C@H](C)[C@@H](O[C@H]2C[C@@](C)(OC)[C@@H](O)[C@H](C)O2)[C@H](C)[C@@H](O[C@@H]2O[C@H](C)C[C@H](N(C)C)[C@H]2O)[C@](C)(O)C[C@@H](C)CN(CCCNC(=O)Nc2cccc(F)c2)[C@H](C)[C@@H](O)[C@]1(C)O | 580 nM | 285 nM | 164 nM
CC[C@H]1OC(=O)[C@H](C)[C@@H](O[C@H]2C[C@@](C)(OC)[C@@H](O)[C@H](C)O2)[C@H](C)[C@@H](O[C@@H]2O[C@H](C)C[C@H](N(C)C)[C@H]2O)[C@](C)(O)C[C@@H](C)CN(CCCNC(=O)NC(C)(C)C)[C@H](C)[C@@H](O)[C@]1(C)O | 5510 nM | 410 nM | 800 nM
CC[C@H]1OC(=O)[C@H](C)[C@@H](O[C@H]2C[C@@](C)(OC)[C@@H](O)[C@H](C)O2)[C@H](C)[C@@H](O[C@@H]2O[C@H](C)C[C@H](N(C)C)[C@H]2O)[C@](C)(O)C[C@@H](C)CN(CCCNC(=S)NCC2CC3CCC2C3)[C@H](C)[C@@H](O)[C@]1(C)O (some centres not stated) | 249 nM | 46.5 nM | 102 nM
CC[C@H]1OC(=O)[C@H](C)[C@@H](O[C@H]2C[C@@](C)(OC)[C@@H](O)[C@H](C)O2)[C@H](C)[C@@H](O[C@@H]2O[C@H](C)C[C@H](N(C)C)[C@H]2O)[C@](C)(O)C[C@@H](C)CN(CCCNC(=O)NC2CCCCC2)[C@H](C)[C@@H](O)[C@]1(C)O | 1960 nM | 185 nM | 411 nM
CC[C@H]1OC(=O)[C@H](C)[C@@H](O[C@H]2C[C@@](C)(OC)[C@@H](O)[C@H](C)O2)[C@H](C)[C@@H](O[C@@H]2O[C@H](C)C[C@H](N(C)C)[C@H]2O)[C@](C)(O)C[C@@H](C)CN(CCCNC(=O)NCc2ccc(OC)cc2)[C@H](C)[C@@H](O)[C@]1(C)O | 1620 nM | 204 nM | 484 nM
CC[C@H]1OC(=O)[C@H](C)[C@@H](O[C@H]2C[C@@](C)(OC)[C@@H](O)[C@H](C)O2)[C@H](C)[C@@H](O[C@@H]2O[C@H](C)C[C@H](N(C)C)[C@H]2O)[C@](C)(O)C[C@@H](C)CN(CCCNC(=O)Nc2cccc(SC)c2)[C@H](C)[C@@H](O)[C@]1(C)O | 332 nM | 73.9 nM | 137 nM
CC[C@H]1OC(=O)[C@H](C)[C@@H](O[C@H]2C[C@@](C)(OC)[C@@H](O)[C@H](C)O2)[C@H](C)[C@@H](O[C@@H]2O[C@H](C)C[C@H](N(C)C)[C@H]2O)[C@](C)(O)C[C@@H](C)CN(CCCNC(=O)Nc2ccc(OC)c(OC3CCCC3)c2)[C@H](C)[C@@H](O)[C@]1(C)O | 445 nM | 201 nM | 138 nM
CC[C@H]1OC(=O)[C@H](C)[C@@H](O[C@H]2C[C@@](C)(OC)[C@@H](O)[C@H](C)O2)[C@H](C)[C@@H](O[C@@H]2O[C@H](C)C[C@H](N(C)C)[C@H]2O)[C@](C)(O)C[C@@H](C)CN(CCCNC(=S)Nc2ccc(Cl)c(Cl)c2)[C@H](C)[C@@H](O)[C@]1(C)O | 296 nM | 229 nM | 84.2 nM
CC[C@H]1OC(=O)[C@H](C)[C@@H](O[C@H]2C[C@@](C)(OC)[C@@H](O)[C@H](C)O2)[C@H](C)[C@@H](O[C@@H]2O[C@H](C)C[C@H](N(C)C)[C@H]2O)[C@](C)(O)C[C@@H](C)CN(CCCNC(=S)NC(c2ccccc2)(c2ccccc2)c2ccccc2)[C@H](C)[C@@H](O)[C@]1(C)O | 125 nM | 37 nM | 31.9 nM
CC[C@H]1OC(=O)[C@H](C)[C@@H](O[C@H]2C[C@@](C)(OC)[C@@H](O)[C@H](C)O2)[C@H](C)[C@@H](O[C@@H]2O[C@H](C)C[C@H](N(C)C)[C@H]2O)[C@](C)(O)C[C@@H](C)CN(CCCNC(=S)NC2CC2)[C@H](C)[C@@H](O)[C@]1(C)O | 3720 nM | 679 nM | 972 nM
CC[C@H]1OC(=O)[C@H](C)[C@@H](O[C@H]2C[C@@](C)(OC)[C@@H](O)[C@H](C)O2)[C@H](C)[C@@H](O[C@@H]2O[C@H](C)C[C@H](N(C)C)[C@H]2O)[C@](C)(O)C[C@@H](C)CN(CCCNC(=S)Nc2ccc(S(=O)(=O)N3CCCCC3)cc2)[C@H](C)[C@@H](O)[C@]1(C)O | 174 nM | 53 nM | 68 nM
CC[C@H]1OC(=O)[C@H](C)[C@@H](O[C@H]2C[C@@](C)(OC)[C@@H](O)[C@H](C)O2)[C@H](C)[C@@H](O[C@@H]2O[C@H](C)C[C@H](N(C)C)[C@H]2O)[C@](C)(O)C[C@@H](C)CN(CCCNC(=S)NC2CCCCCCCCCCC2)[C@H](C)[C@@H](O)[C@]1(C)O | 264 nM | 85 nM | 140 nM
CC[C@H]1OC(=O)[C@H](C)[C@@H](O[C@H]2C[C@@](C)(OC)[C@@H](O)[C@H](C)O2)[C@H](C)[C@@H](O[C@@H]2O[C@H](C)C[C@H](N(C)C)[C@H]2O)[C@](C)(O)C[C@@H](C)CN(CCCNC(=O)Nc2cccc(C(F)(F)F)c2)[C@H](C)[C@@H](O)[C@]1(C)O | 257 nM | 135 nM | 72.8 nM
CC[C@H]1OC(=O)[C@H](C)[C@@H](O[C@H]2C[C@@](C)(OC)[C@@H](O)[C@H](C)O2)[C@H](C)[C@@H](O[C@@H]2O[C@H](C)C[C@H](N(C)C)[C@H]2O)[C@](C)(O)C[C@@H](C)CN(CCCNC(=S)NCC23CC4CC(CC(C4)C2)C3)[C@H](C)[C@@H](O)[C@]1(C)O | 553 nM | 210 nM | 152 nM
CC[C@H]1OC(=O)[C@H](C)[C@@H](O[C@H]2C[C@@](C)(OC)[C@@H](O)[C@H](C)O2)[C@H](C)[C@@H](O[C@@H]2O[C@H](C)C[C@H](N(C)C)[C@H]2O)[C@](C)(O)C[C@@H](C)CN(CCCNC(=S)Nc2cccc(C(F)(F)F)c2)[C@H](C)[C@@H](O)[C@]1(C)O | 120 nM | 30.3 nM | 54 nM
CC[C@H]1OC(=O)[C@H](C)[C@@H](O[C@H]2C[C@@](C)(OC)[C@@H](O)[C@H](C)O2)[C@H](C)[C@@H](O[C@@H]2O[C@H](C)C[C@H](N(C)C)[C@H]2O)[C@](C)(O)C[C@@H](C)CN(CCCNC(=O)Nc2cc(F)cc3c2OCOC3)[C@H](C)[C@@H](O)[C@]1(C)O | 284 nM | 306 nM | 220 nM
CC[C@H]1OC(=O)[C@H](C)[C@@H](O[C@H]2C[C@@](C)(OC)[C@@H](O)[C@H](C)O2)[C@H](C)[C@@H](O[C@@H]2O[C@H](C)C[C@H](N(C)C)[C@H]2O)[C@](C)(O)C[C@@H](C)CN(CCCNC(=O)Nc2ccc3c(c2)CCO3)[C@H](C)[C@@H](O)[C@]1(C)O | 2050 nM | 1590 nM | 923 nM
CC[C@H]1OC(=O)[C@H](C)[C@@H](O[C@H]2C[C@@](C)(OC)[C@@H](O)[C@H](C)O2)[C@H](C)[C@@H](O[C@@H]2O[C@H](C)C[C@H](N(C)C)[C@H]2O)[C@](C)(O)C[C@@H](C)CN(CCCNC(=O)Nc2ccc(C(C)C)cc2)[C@H](C)[C@@H](O)[C@]1(C)O | 225 nM | 70.9 nM | 78.3 nM
CC[C@H]1OC(=O)[C@H](C)[C@@H](O[C@H]2C[C@@](C)(OC)[C@@H](O)[C@H](C)O2)[C@H](C)[C@@H](O[C@@H]2O[C@H](C)C[C@H](N(C)C)[C@H]2O)[C@](C)(O)C[C@@H](C)CN(CCCNC(=S)Nc2ccc(Br)cc2)[C@H](C)[C@@H](O)[C@]1(C)O | 261 nM | 169 nM | 173 nM
